{
  "source": "ChEMBL document CHEMBL3044960",
  "about": "“Evaluation of fungicide applications to sweet orange at different flowering stages for control of postbloom fruit drop caused by Colletotrichum acutatum” (2008)",
  "key": {"Colletotrichum acutatum [1]": {"system": "Colletotrichum acutatum", "assay": "Fungicidal activity against Colletotrichum acutatum infested Citrus sinensis assessed as increase in fruit set at 0.5 g/l applied through airblast sprayer during white bud and hollow ball flower stages measured after 70 days relative to control", "format": "functional, organism-based"}, "Colletotrichum acutatum [2]": {"system": "Colletotrichum acutatum", "assay": "Fungicidal activity against Colletotrichum acutatum infested Citrus sinensis assessed as increase in fruit set at 0.5 g/l applied through airblast sprayer during white bud flower stage measured after 70 days", "format": "functional, organism-based"}, "Colletotrichum acutatum [3]": {"system": "Colletotrichum acutatum", "assay": "Fungicidal activity against Colletotrichum acutatum infested Citrus sinensis assessed as increase in fruit set at 0.5 g/l applied through airblast sprayer during green bud flower stage measured after 70 days", "format": "functional, organism-based"}, "Colletotrichum acutatum [4]": {"system": "Colletotrichum acutatum", "assay": "Fungicidal activity against Colletotrichum acutatum infested Citrus sinensis assessed as reduction in number of symptomatic flowers at 0.5 g/l applied through airblast sprayer during green bud until open flower stages measured after 7 days", "format": "functional, organism-based"}, "Colletotrichum acutatum [5]": {"system": "Colletotrichum acutatum", "assay": "Fungicidal activity against Colletotrichum acutatum infested Citrus sinensis assessed as reduction in number of symptomatic flowers at 0.5 g/l applied through airblast sprayer during green bud, white bud and hollow ball flower stages measured after 7 days", "format": "functional, organism-based"}, "Colletotrichum acutatum [6]": {"system": "Colletotrichum acutatum", "assay": "Fungicidal activity against Colletotrichum acutatum infested Citrus sinensis assessed as reduction in number of symptomatic flowers at 0.5 g/l applied through airblast sprayer during green bud and white bud flower stages measured after 7 days", "format": "functional, organism-based"}, "Colletotrichum acutatum [7]": {"system": "Colletotrichum acutatum", "assay": "Fungicidal activity against Colletotrichum acutatum infested Citrus sinensis assessed as reduction in number of symptomatic flowers at 0.5 g/l applied through airblast sprayer during green bud flower stage measured after 7 days", "format": "functional, organism-based"}, "Colletotrichum acutatum [8]": {"system": "Colletotrichum acutatum", "assay": "Fungicidal activity against Colletotrichum acutatum infested Citrus sinensis assessed as increase in fruit production per tree at 0.5 g/l applied through airblast sprayer during green bud to white ball flower stages measured after 70 days in presence of KNO3", "format": "functional, organism-based"}, "Colletotrichum acutatum [9]": {"system": "Colletotrichum acutatum", "assay": "Fungicidal activity against Colletotrichum acutatum infested Citrus sinensis assessed as increase in fruit set percentage at 0.5 g/l applied through airblast sprayer during green bud to white ball flower stages measured after 70 days in presence of KNO3", "format": "functional, organism-based"}, "Colletotrichum acutatum [10]": {"system": "Colletotrichum acutatum", "assay": "Fungicidal activity against Colletotrichum acutatum infested Citrus sinensis assessed as reduction in persistant calyces at 0.5 g/l applied through airblast sprayer during green bud to white ball flower stages measured after 7 days", "format": "functional, organism-based"}, "Colletotrichum acutatum [11]": {"system": "Colletotrichum acutatum", "assay": "Fungicidal activity against Colletotrichum acutatum infested Citrus sinensis assessed as increase in fruit set percentage at 0.5 g/l applied through airblast sprayer during green bud to white ball flower stages measured after 70 days", "format": "functional, organism-based"}, "Colletotrichum acutatum [12]": {"system": "Colletotrichum acutatum", "assay": "Fungicidal activity against Colletotrichum acutatum infested Citrus sinensis assessed as increase in fruit production per tree at 0.5 g/l applied through airblast sprayer during green bud to white ball flower stages measured after 70 days", "format": "functional, organism-based"}, "Colletotrichum acutatum [13]": {"system": "Colletotrichum acutatum", "assay": "Fungicidal activity against Colletotrichum acutatum infested Citrus sinensis assessed as total fruit weight per plant at 0.5 g/l applied through airblast sprayer during white bud and hollow ball flower stages measured after 70 days (Rvb =49.88 kg)", "format": "functional"}, "Colletotrichum acutatum [14]": {"system": "Colletotrichum acutatum", "assay": "Fungicidal activity against Colletotrichum acutatum infested Citrus sinensis assessed as total fruit weight per plant at 0.5 g/l applied through airblast sprayer during green bud and hollow ball flower stages measured after 70 days (Rvb =49.88 kg)", "format": "functional"}, "Colletotrichum acutatum [15]": {"system": "Colletotrichum acutatum", "assay": "Fungicidal activity against Colletotrichum acutatum infested Citrus sinensis assessed as total fruit weight per plant at 0.5 g/l applied through airblast sprayer during open flower stage measured after 70 days (Rvb =49.88 kg)", "format": "functional"}, "Colletotrichum acutatum [16]": {"system": "Colletotrichum acutatum", "assay": "Fungicidal activity against Colletotrichum acutatum infested Citrus sinensis assessed as total fruit weight per plant at 0.5 g/l applied through airblast sprayer during hollow ball flower stage measured after 70 days (Rvb =49.88 kg)", "format": "functional"}, "Colletotrichum acutatum [17]": {"system": "Colletotrichum acutatum", "assay": "Fungicidal activity against Colletotrichum acutatum infested Citrus sinensis assessed as total fruit weight per plant at 0.5 g/l applied through airblast sprayer during green bud until open flower stages measured after 70 days (Rvb =65.90 kg)", "format": "functional"}, "Colletotrichum acutatum [18]": {"system": "Colletotrichum acutatum", "assay": "Fungicidal activity against Colletotrichum acutatum infested Citrus sinensis assessed as total fruit weight per plant at 0.5 g/l applied through airblast sprayer during green bud, white bud and hollow ball flower stages measured after 70 days (Rvb =65.90 kg)", "format": "functional"}, "Colletotrichum acutatum [19]": {"system": "Colletotrichum acutatum", "assay": "Fungicidal activity against Colletotrichum acutatum infested Citrus sinensis assessed as total fruit weight per plant at 0.5 g/l applied through airblast sprayer during green bud and white bud flower stages measured after 70 days (Rvb =65.90 kg)", "format": "functional"}, "Colletotrichum acutatum [20]": {"system": "Colletotrichum acutatum", "assay": "Fungicidal activity against Colletotrichum acutatum infested Citrus sinensis assessed as total fruit weight per plant at 0.5 g/l applied through airblast sprayer during green bud flower stage measured after 70 days (Rvb =65.90 kg)", "format": "functional"}, "Colletotrichum acutatum [21]": {"system": "Colletotrichum acutatum", "assay": "Fungicidal activity against Colletotrichum acutatum infested Citrus sinensis assessed as increase in fruit set at 0.5 g/l applied through airblast sprayer during open flower stage measured after 70 days", "format": "functional, organism-based"}, "Colletotrichum acutatum [22]": {"system": "Colletotrichum acutatum", "assay": "Fungicidal activity against Colletotrichum acutatum infested Citrus sinensis assessed as reduction in symptomatic flowers at 0.5 g/l applied through airblast sprayer during open flower stage measured after 7 days", "format": "functional, organism-based"}, "Colletotrichum acutatum [23]": {"system": "Colletotrichum acutatum", "assay": "Fungicidal activity against Colletotrichum acutatum infested Citrus sinensis assessed as reduction in symptomatic flowers at 0.5 g/l applied through airblast sprayer during hollow ball flower stage measured after 7 days", "format": "functional, organism-based"}, "Colletotrichum acutatum [24]": {"system": "Colletotrichum acutatum", "assay": "Fungicidal activity against Colletotrichum acutatum infested Citrus sinensis assessed as reduction in symptomatic flowers at 0.5 g/l applied through airblast sprayer during white bud and hollow ball flower stages measured after 7 days", "format": "functional, organism-based"}, "Colletotrichum acutatum [25]": {"system": "Colletotrichum acutatum", "assay": "Fungicidal activity against Colletotrichum acutatum infested Citrus sinensis assessed as reduction in symptomatic flowers at 0.5 g/l applied through airblast sprayer during green bud and hollow ball flower stages measured after 7 days", "format": "functional, organism-based"}},
  "note": "Activity calls are given as the source filed them. The calls are words filed in the database; no cut-off is given here.",
  "data": [
    {"smiles": "COC(=O)Nc1nc2ccccc2[nH]1", "note": "[CARBENDAZIM]", "values": [
      {"measurement": "Activity", "setting": "Colletotrichum acutatum [1]", "value": "Active"},
      {"measurement": "Activity", "setting": "Colletotrichum acutatum [2]", "value": "Active"},
      {"measurement": "Activity", "setting": "Colletotrichum acutatum [3]", "value": "Active"},
      {"measurement": "Activity", "setting": "Colletotrichum acutatum [4]", "value": "Active"},
      {"measurement": "Activity", "setting": "Colletotrichum acutatum [5]", "value": "Active"},
      {"measurement": "Activity", "setting": "Colletotrichum acutatum [6]", "value": "Active"},
      {"measurement": "Activity", "setting": "Colletotrichum acutatum [7]", "value": "Active"},
      {"measurement": "Activity", "setting": "Colletotrichum acutatum [8]", "value": "Active"},
      {"measurement": "Activity", "setting": "Colletotrichum acutatum [9]", "value": "Active"},
      {"measurement": "Activity", "setting": "Colletotrichum acutatum [10]", "value": "Active"},
      {"measurement": "Activity", "setting": "Colletotrichum acutatum [11]", "value": "Active"},
      {"measurement": "Activity", "setting": "Colletotrichum acutatum [12]", "value": "Active"},
      {"measurement": "Activity", "setting": "Colletotrichum acutatum [13]", "value": 63.5, "unit": "kg"},
      {"measurement": "Activity", "setting": "Colletotrichum acutatum [14]", "value": 73.8, "unit": "kg"},
      {"measurement": "Activity", "setting": "Colletotrichum acutatum [15]", "value": 59, "unit": "kg"},
      {"measurement": "Activity", "setting": "Colletotrichum acutatum [16]", "value": 57, "unit": "kg"},
      {"measurement": "Activity", "setting": "Colletotrichum acutatum [17]", "value": 114.9, "unit": "kg"},
      {"measurement": "Activity", "setting": "Colletotrichum acutatum [18]", "value": 102.4, "unit": "kg"},
      {"measurement": "Activity", "setting": "Colletotrichum acutatum [19]", "value": 67.9, "unit": "kg"},
      {"measurement": "Activity", "setting": "Colletotrichum acutatum [20]", "value": 53.7, "unit": "kg"},
      {"measurement": "Activity", "setting": "Colletotrichum acutatum [21]", "value": "inactive"},
      {"measurement": "Activity", "setting": "Colletotrichum acutatum [22]", "value": "inactive"},
      {"measurement": "Activity", "setting": "Colletotrichum acutatum [23]", "value": "Active"},
      {"measurement": "Activity", "setting": "Colletotrichum acutatum [24]", "value": "Active"},
      {"measurement": "Activity", "setting": "Colletotrichum acutatum [25]", "value": "Active"}
    ]}
  ]
}
